Test results: PMC4979471 (Cell Death Discovery, 2015)
Read-outs that look alike come from different tables or passages of the source.

Legend:
Experiment in all cases: Kinase selectivity, P33-radiolabeled assay
Assay type in all cases: biochemical
Conditions in all cases: 10 μM ATP
BRSK2 = biological target: T1, BRSK2 (Homo sapiens, UniProt Q8IWQ3)
T1 construct: purchased Reaction Biology Corp
T1 sequence (Q8IWQ3 1-736): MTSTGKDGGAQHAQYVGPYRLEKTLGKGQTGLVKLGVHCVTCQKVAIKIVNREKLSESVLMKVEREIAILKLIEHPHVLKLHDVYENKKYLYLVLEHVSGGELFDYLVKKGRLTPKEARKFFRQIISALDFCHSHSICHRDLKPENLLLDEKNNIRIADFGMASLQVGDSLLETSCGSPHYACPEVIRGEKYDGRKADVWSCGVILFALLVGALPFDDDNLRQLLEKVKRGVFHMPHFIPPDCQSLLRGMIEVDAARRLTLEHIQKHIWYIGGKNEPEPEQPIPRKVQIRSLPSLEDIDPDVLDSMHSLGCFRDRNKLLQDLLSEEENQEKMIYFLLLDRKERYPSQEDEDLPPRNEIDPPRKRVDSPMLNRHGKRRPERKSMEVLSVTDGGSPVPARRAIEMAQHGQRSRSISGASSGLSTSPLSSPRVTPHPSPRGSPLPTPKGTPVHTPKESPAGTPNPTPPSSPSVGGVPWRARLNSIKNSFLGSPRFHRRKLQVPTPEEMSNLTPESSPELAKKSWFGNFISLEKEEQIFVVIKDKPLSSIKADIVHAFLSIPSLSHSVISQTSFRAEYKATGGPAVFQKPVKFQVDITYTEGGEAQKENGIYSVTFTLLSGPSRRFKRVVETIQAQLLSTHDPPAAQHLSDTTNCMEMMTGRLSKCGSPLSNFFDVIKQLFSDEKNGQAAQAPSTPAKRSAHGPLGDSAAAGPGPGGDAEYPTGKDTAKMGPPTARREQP
Outline: (§1)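 Activity relative to DMSO controls (%) was measured for compound at 10 μM. Assays ran at 10 μM ATP, in duplicate.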

EPHB2 = biological target: T2, EPHB2 (Homo sapiens, UniProt P29323)
T2 construct: purchased Reaction Biology Corp
T2 sequence (P29323 19-1055): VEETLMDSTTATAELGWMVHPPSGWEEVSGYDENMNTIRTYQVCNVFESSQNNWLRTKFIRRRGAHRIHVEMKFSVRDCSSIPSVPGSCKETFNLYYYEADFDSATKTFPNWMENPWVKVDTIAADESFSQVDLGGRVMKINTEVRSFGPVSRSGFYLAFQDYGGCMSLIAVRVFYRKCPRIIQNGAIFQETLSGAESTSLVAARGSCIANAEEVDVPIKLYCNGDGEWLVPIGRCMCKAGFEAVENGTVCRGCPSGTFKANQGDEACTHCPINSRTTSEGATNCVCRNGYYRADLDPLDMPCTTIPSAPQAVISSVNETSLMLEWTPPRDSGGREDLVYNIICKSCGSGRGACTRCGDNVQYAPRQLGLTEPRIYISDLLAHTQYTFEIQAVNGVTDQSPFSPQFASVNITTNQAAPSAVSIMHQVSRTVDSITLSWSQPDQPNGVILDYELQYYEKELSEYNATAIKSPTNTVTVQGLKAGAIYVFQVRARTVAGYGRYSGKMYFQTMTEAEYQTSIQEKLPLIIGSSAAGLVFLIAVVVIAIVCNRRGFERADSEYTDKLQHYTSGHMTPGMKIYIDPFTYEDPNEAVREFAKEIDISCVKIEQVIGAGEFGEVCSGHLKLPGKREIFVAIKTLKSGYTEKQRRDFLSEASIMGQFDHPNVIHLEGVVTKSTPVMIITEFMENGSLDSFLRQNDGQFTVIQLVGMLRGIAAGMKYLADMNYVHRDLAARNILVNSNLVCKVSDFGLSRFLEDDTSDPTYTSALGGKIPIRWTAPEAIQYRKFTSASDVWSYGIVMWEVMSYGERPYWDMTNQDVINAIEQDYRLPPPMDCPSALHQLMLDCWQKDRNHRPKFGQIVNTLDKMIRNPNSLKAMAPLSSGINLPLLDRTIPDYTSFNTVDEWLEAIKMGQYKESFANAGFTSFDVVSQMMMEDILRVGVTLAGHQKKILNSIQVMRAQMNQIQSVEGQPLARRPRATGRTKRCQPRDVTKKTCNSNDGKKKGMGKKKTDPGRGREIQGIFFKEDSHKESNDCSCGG
Outline: as §1

FRK/PTK5 = biological target: T3, FRK/PTK5 (Homo sapiens, UniProt P42685)
T3 construct: purchased Reaction Biology Corp
T3 sequence (P42685 whole entry): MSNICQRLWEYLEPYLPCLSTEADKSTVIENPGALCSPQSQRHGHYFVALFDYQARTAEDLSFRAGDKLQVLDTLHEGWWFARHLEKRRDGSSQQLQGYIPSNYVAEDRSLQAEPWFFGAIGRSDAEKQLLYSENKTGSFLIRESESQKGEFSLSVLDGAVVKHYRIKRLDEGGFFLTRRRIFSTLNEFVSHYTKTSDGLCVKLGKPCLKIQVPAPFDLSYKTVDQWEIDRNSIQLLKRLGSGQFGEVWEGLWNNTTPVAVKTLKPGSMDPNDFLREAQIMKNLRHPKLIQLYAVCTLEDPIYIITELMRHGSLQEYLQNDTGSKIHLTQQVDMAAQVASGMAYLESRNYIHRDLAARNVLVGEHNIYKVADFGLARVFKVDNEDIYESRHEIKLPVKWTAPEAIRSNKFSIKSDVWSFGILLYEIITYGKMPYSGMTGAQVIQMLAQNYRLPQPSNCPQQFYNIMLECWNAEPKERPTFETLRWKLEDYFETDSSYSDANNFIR
Outline: as §1

HCK = biological target: T4, HCK (Homo sapiens, UniProt P08631)
T4 construct: purchased Reaction Biology Corp
T4 sequence (P08631 whole entry): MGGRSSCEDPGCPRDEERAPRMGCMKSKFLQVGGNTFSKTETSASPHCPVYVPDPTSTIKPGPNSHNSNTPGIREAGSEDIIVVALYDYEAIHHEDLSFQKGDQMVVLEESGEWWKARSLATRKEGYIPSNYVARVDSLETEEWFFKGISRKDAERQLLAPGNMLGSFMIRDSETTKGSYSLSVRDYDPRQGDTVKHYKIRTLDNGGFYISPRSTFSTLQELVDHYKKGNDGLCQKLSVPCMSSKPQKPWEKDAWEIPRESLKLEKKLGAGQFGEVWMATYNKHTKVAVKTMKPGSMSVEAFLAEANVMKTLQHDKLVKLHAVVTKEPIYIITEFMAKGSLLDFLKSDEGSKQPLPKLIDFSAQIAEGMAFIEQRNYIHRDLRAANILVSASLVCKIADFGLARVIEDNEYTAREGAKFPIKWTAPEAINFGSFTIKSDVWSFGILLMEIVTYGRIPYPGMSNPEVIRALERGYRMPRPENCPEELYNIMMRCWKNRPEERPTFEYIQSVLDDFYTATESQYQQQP
Outline: as §1

PASK = biological target: T5, PASK (Homo sapiens, UniProt Q96RG2)
T5 construct: purchased Reaction Biology Corp
T5 sequence (Q96RG2 whole entry): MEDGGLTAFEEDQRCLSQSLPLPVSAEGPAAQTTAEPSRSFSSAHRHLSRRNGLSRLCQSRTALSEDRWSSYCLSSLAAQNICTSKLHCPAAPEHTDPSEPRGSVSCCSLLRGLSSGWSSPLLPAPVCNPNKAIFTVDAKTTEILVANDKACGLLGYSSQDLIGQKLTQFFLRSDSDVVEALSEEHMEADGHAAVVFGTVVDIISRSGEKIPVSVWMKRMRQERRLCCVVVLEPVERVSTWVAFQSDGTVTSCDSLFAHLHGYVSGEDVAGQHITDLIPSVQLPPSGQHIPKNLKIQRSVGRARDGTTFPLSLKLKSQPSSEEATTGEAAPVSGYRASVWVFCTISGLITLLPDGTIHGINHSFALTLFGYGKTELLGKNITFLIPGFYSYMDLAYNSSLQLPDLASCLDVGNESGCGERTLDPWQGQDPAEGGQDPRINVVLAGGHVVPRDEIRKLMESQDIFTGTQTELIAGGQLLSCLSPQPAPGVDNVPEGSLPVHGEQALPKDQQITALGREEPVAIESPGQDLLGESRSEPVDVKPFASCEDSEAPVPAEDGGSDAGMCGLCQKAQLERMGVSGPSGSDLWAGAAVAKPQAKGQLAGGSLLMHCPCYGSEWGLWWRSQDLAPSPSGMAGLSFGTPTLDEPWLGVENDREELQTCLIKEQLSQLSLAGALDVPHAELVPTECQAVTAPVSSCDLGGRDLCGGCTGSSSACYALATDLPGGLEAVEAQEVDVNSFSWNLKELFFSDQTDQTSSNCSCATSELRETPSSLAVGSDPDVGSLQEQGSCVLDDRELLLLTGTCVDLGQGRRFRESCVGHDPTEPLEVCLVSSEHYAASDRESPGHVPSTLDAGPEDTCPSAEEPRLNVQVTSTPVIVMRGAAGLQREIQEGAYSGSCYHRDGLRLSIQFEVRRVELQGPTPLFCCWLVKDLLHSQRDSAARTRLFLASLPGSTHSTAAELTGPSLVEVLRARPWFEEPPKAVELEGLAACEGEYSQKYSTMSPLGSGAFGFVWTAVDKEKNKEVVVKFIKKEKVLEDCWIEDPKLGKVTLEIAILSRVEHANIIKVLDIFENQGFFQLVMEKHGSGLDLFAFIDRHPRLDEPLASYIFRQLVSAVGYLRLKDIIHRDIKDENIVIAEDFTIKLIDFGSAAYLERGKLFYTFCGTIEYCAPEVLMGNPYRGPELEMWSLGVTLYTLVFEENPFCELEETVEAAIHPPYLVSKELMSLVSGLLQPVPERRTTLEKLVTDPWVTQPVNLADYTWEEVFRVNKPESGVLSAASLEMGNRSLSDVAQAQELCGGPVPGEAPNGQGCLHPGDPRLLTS
Outline: as §1

[1] = read-out: % Enzyme Activity (relative to DMSO controls) AVG
[2] = read-out: % Enzyme Activity (relative to DMSO controls) Data 1
[3] = read-out: % Enzyme Activity (relative to DMSO controls) Data 2

`CC(C)(C)C(=O)N1N=CC[C@H]1c1ccccc1` [GSK′963] was tested, and the remaining activity at 10 µM (BRSK2; [1]) was 104%, the remaining activity at 10 µM (BRSK2; [2]) was 109% and the remaining activity at 10 µM (BRSK2; [3]) was 98.7%. It also gave a remaining activity at 10 µM (EPHB2; [1]) of 105%, a remaining activity at 10 µM (EPHB2; [2]) of 108% and a remaining activity at 10 µM (EPHB2; [3]) of 102%. The remaining activity at 10 µM (FRK/PTK5; [1]) was 86%, the remaining activity at 10 µM (FRK/PTK5; [2]) was 87.6% and the remaining activity at 10 µM (FRK/PTK5; [3]) was 84.4%. For the same compound, the remaining activity at 10 µM (HCK; [1]) was 96.5%, the remaining activity at 10 µM (HCK; [2]) was 95.5% and the remaining activity at 10 µM (HCK; [3]) was 97.6%. The remaining activity at 10 µM (PASK; [1]) was 102%, the remaining activity at 10 µM (PASK; [2]) was 103% and the remaining activity at 10 µM (PASK; [3]) was 101%.
